Test results reported in article PMC7851449, “An extracellular lipase from Amycolatopsis mediterannei is a cutinase with plastic degrading activity” (Computational and Structural Biotechnology Journal, 2021).

Target: T1, AML (Amycolatopsis mediterranei lipase) (Amycolatopsis mediterranei, UniProt A0A0H3DES9)
T1 construct: gene AMED_7492; recombinant, pET-49b(+), E. coli BL21(DE3) cytosol; glutathione agarose, tag cut off with PreScission protease
Experiment: p-nitrophenyl ester hydrolysis assay, relative activity
Format: biochemical
Conditions: 50 mM Tris pH 7.5, 37 °C, 10 min, 20 mM substrate

T1 sequence (A0A0H3DES9 entry or part of it): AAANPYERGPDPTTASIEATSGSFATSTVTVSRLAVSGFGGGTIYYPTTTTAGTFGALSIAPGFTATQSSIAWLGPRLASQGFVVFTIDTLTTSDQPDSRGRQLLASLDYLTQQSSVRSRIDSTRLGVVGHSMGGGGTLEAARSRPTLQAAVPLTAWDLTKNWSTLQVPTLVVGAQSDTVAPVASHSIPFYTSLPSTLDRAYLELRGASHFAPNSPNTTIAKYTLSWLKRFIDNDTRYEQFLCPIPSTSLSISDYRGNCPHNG

CC(=O)Oc1ccc([N+](=O)[O-])cc1 [p-nitrophenyl acetate]
relative activity (%): experimentally low activity of AML observed towards p-nitrophenyl acetate

CCCCCCCC(=O)Oc1ccc([N+](=O)[O-])cc1 [p-nitrophenyl octanoate]
relative activity (%) (reference substrate for relative activity): relative activity (%) was calculated using p-nitrophenyl octanoate (C-8) as the reference, highest activity, substrate
